Several values for one entry are separate records, joined by “and”; a condition that tells them apart may be missing. Equal entries are not always repeated.
Columns and labels:
DLBCL^T156 PDX = assay: PDX model tumor growth and weight, DLBCL T156; format: in vivo, human; details: result in words
Experimental: (§1) Four 5-week-old male NSG mice were implanted subcutaneously with 200 μl of a 1:1 mixture of Matrigel® Basement Membrane Matrix High Concentration (Corning, 354230) and minced fresh tumor fragments resected from lymphoma patients. Approximately 3–4 weeks following implantation, the first-generation mice (G1) were killed, and tumor masses were isolated. The tumor cells were tested for human CD19 (BCL) or CD3 expression (T cell lymphoma), and the remaining tumor mass was cut into 3-mm^3 sections and passaged into 4–5 NSG mice as the second generation (G2). After stable passage of the third generation (G3), the tumor mass of the fourth generation (G4) was equally cut into 3-mm^3 pieces and then passaged subcutaneously into 30–50 NSG mice (100 μl of a 1:2 mixture of Matrigel and tumor tissue) for in vivo treatment (6–8 mice per group, dependent on the experimental drug treatment). During and after treatment with the vehicle control or the indicated agent, tumor burden was evaluated by measuring the tumor volume to determine the therapeutic efficacy in the PDX models. […]
(§2) To evaluate the survival rate, these mice were monitored for 8 months (Myc^Eμ mice). […] During the indicated treatments, tumor burden was evaluated by measuring the tumor volume to determine the therapeutic efficacy in the PDX models.

MYC protein = MYC protein level by immunoblotting in Jurkat and Raji cells; format: cell-based, human; details: 4 μM, result in words
Experimental: Co-IP experiments were performed as described previously. Briefly, cells were collected and lysed for 30 min on ice. Soluble lysates were incubated with the indicated antibodies at 4 °C overnight, followed by incubation with Protein A/G Plus-Agarose (Santa Cruz Biotechnology, TX, USA) at 4 °C for 2 h. Soluble lysates were incubated with the indicated Anti-Myc magnetic beads (Bimake.com, B26302), Anti-Flag Affinity Gel (Bimake.com, B23102) or Anti-HA Affinity Gel (Bimake.com, B23302) at 4 °C overnight. Immunocomplexes were separated from the beads and then boiled for 10 min. The precipitated proteins were subjected to SDS-PAGE and blotted with specific antibodies. For immunoblotting assays, proteins were extracted from cells, spleens, or lymphoma tissues using RIPA buffer (Cell Signaling Technology, MA, USA). A BCA Protein Assay Kit was used to determine protein concentrations. Protein extracts were separated by SDS-PAGE, transferred onto PVDF membranes, and subjected to immunoblot analysis. Western blot images were captured by a Tanon 5200 chemiluminescent imaging system (Tanon, Shanghai, […]). Human lymphoma and benign LN paraffin tissue microarrays were purchased from US Biomax (LM482a).

[1] = system: primary human DLBCL cells (T69); assay: Serial colony formation (P1, P2) in methylcellulose, primary human DLBCL cells (T69); format: cell-based; details: also Raji and Jurkat (Fig. 6o, Supplementary Fig. 7r, s), result in words
Excerpt: Mouse and human lymphoma cells formed colonies upon serum culture (P1). Single colonies of lymphoma cells were dispersed in methylcellulose-based medium MethoCul^TM M3630 (StemCell, 03630) or MethoCult™SF H4536 (StemCell, 04536). A representative plate was then washed and cells were resuspended and replated. After an additional 14 days, colonies were counted (P2).

MYC and UBE3B = assay: MYC/UBE3B colocalized foci in Raji cells; format: cell-based, human
Experimental: A total of 1 × 10^6 cells were seeded overnight in a six-well plate. […] The cells were then treated with the Duolink In Situ Red Starter Mouse/Rabbit kit (Sigma Aldrich, DUO92101-1KT) according to the manufacturer’s instructions. Images were captured with an OLYMPUS confocal microscope.
For immunofluorescence staining, cells seeded on coverslips were briefly washed with PBS and fixed with 4% buffered paraformaldehyde for 15 min, permeabilized with 0.5% Triton X- 100 for 15 min, blocked with 3% BSA for 30 min at 37 °C, and stained with specific primary antibodies followed by corresponding secondary antibodies. Nuclei were counterstained with DAPI. Images were captured using a confocal fluorescent microscope (Olympus Microsystems, CA, USA). Quantitative image analysis was performed with the Imaris 9.3.1 software. Pearson’s coefficient was use to analyze colocalization between two target proteins.

[2] = system: lymphoma and leukemia cells; assay: Cell viability (CCK-8) of lymphoma and leukemia cells with PCM4; format: cell-based, human; details: result in words
[3] = system: MYC transcriptional activity; assay: E-box luciferase reporter assay of MYC transcriptional activity in Raji cells; format: cell-based, human; details: 24 h after transfection, versus PCON, result in words
Experimental: Cells were seeded in 12-well plates and transfected with E-box-dependent luciferase reporters (Yeasen Inc.) using VigoFect (Vigorous Biotechnology Beijing, China). pTK-Renilla was used as an internal control. Luciferase activity was measured 20–24 h after transfection using the Dual-luciferase Reporter Assay System (Promega, USA).

DLBCL^T64 PDX = assay: PDX model tumor growth and weight, DLBCL T64; format: in vivo, human; details: result in words
Experimental: as §1, §2

Sequence: HLYVSPWGGKRREQLKHKLEQLR [PCM4, fused peptide generated by linking CM4 to a cell-penetrating peptide]
- growth and weights of tumors, combination of PCM4 and DOX (DLBCL^T156 PDX; PDX T156 (high TRIB3 and MYC expression), PCM4 5 mg/kg and DOX 2 mg/kg): further decreased the growth and weights of tumors
- tumor growth of PDX (DLBCL^T156 PDX; PDX T156, NSG mice, PCM4 5 mg/kg i.v. three times a week): inhibited the tumor growth
- MYC abundance (MYC protein): reduced the MYC abundance
- intrinsic clonogenicity of human lymphoma cells [1]: reduced the intrinsic clonogenicity
- Fig 6f. MYC/UBE3B foci per cell (MYC and UBE3B; 30 Min, single cells, n = 20): 12 and 11
- interaction of MYC and UBE3B (MYC and UBE3B; result in words): rescued the interaction of MYC and UBE3B
- proliferation of lymphoma and leukemia cells [2]: inhibited the proliferation of most lymphoma and leukemia cells in a time-dependent manner
- MYC transcriptional activity [3]: reduced MYC transcriptional activity
- growth and weights of tumors, combination of PCM4 and DOX (DLBCL^T64 PDX; PDX T64 (high TRIB3 and MYC expression), PCM4 5 mg/kg and DOX 2 mg/kg): further decreased the growth and weights of tumors
- tumor growth of PDX (DLBCL^T64 PDX; PDX T64, NSG mice, PCM4 5 mg/kg i.v. three times a week): inhibited the tumor growth

From paper PMC7725785, “TRIB3 promotes MYC-associated lymphoma development through suppression of UBE3B-mediated MYC degradation” (Nature Communications, 2020)
